Drawing on patent US8263609B2, “Tetrahydro-β-carbolin-sulfonamide derivatives as 5-Ht6 ligands” (Laboratorios Del Dr. Esteve, S.A., priority 2005, dated 2012), this text covers melting point, Ki and inhibition for 42 compounds.

Data set [1] addresses T1, 5HT6-human recombinant receptor (Homo sapiens, UniProt P50406).
T1 construct: purchased Receptor Biology; host or cells: HEK-293 cell membranes
Briefly: Binding to Serotonin Receptor 5HT6 ([3H]-LSD radioligand displacement, HEK-293 cell membranes). The following applies: [3H]-LSD 2.7 nM, HEK-293 membranes; for Ki: non-linear regression EBDA/LIGAND; for inhibition at 0.1 µM: compound at 10^−7 M, 60 min, 37° C. How it is done: Binding to Serotonin Receptor 5HT6
Cell membranes of HEK-293 cells expressing the 5HT6-human recombinant receptor were supplied by Receptor Biology. In said membranes the receptor concentration is 2.18 pmol/mg protein and the protein concentration is 9.17 mg/ml. The experimental protocol follows the method of B. L. Roth et al. [B. L. Roth et al., The Journal of Pharmacology and Experimental Therapeutics, 1994, 268, 1403] with the following slight changes. The respective part of the literature description is hereby incorporated by reference and forms part of the disclosure.
The commercial membrane is diluted (1:40 dilution) with the binding buffer: 50 mM Tris-HCl, 10 mM MgCl2, 0.5 mM EDTA (pH 7.4). The radioligand used is [^3H]-LSD at a concentration of 2.7 nM with a final volume of 200 μl. incubation is initiated by adding 100 μl of membrane suspension, (≈22.9 μg membrane protein), and is prolonged for 60 minutes at a temperature of 37° C. The incubation is ended by fast filtration in a Brandel Cell Harvester through fiber glass filters made by Schleicher & Schuell GF 3362 pretreated with a solution of polyethylenimine at 0.5%. The filters are washed three times with three milliliters of buffer Tris-HCl 50 mM pH 7.4. The filters are transferred to flasks and 5 ml of Ecoscint H liquid scintillation cocktail are added to each flask. The flasks are allowed to reach equilibrium for several hours before counting with a Wallac Winspectral 1414 scintillation counter. Non-specific binding is determined in the presence of 100 μM of serotonin. Tests were made in triplicate. The inhibition constants (Ki, nM) were calculated by non-linear regression analysis using the program EBDA/LIGAND described in Munson and Rodbard, Analytical Biochemistry, 1980, 107, 220, which is hereby incorporated by reference and forms part of the disclosure.
A general note: Loss of bound radioactivity is the signal in a displacement assay; it reports binding, not function.

T1 sequence (P50406 whole entry): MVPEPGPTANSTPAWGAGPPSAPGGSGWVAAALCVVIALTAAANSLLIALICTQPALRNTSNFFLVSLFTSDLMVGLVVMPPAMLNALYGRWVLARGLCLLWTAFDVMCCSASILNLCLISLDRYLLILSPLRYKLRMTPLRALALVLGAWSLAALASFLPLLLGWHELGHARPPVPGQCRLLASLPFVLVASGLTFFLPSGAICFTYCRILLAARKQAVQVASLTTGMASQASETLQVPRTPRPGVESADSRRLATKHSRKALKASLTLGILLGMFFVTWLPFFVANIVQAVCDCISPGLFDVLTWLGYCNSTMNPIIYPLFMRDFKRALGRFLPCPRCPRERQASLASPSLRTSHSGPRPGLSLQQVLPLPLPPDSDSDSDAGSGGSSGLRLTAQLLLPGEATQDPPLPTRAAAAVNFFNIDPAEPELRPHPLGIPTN

Regarding `CN1CCc2c([nH]c3ccc(NS(=O)(=O)c4cccc5nsnc45)cc23)C1`, the melting point (usually the temperature, or range, at which the solid turns liquid) is 244 to 245 °C.

The compound `CCN1CCc2c([nH]c3ccc(NS(=O)(=O)c4c(Cl)nc5sccn45)cc23)C1` [Example 19, 6-Chloro-imidazo[2,1-b]thiazole-5-sulfonic acid (2-ethyl-2,3,4,9-tetrahydro-1H-β-carbolin-6-yl)-amide] came in with a melting point of 219 to 222 °C. Also, in data set [1], the inhibition constant Ki (in general, a dissociation constant, usually derived from enzyme kinetics or from competition with a known ligand) amounted to 1.1 nM and the inhibition (as a rule, the percentage by which the read-out fell short of the control) at 0.1 µM is 97%.

As to `CCN1CCc2c([nH]c3ccc(NS(=O)(=O)c4csc5ccccc45)cc23)C1` [Example 22, Benzo[b]thiophene-3-sulfonic acid (2-ethyl-2,3,4,9-tetrahydro-1H-β-carbolin-6-yl)-amide], the melting point is 215 to 216 °C. Moreover, in data set [1], the Ki worked out at 36.7 nM and the inhibition at 0.1 µM stood at 84.6%.

Take `CN1CCc2c([nH]c3ccc(NS(=O)(=O)c4c(Cl)nc5sccn45)cc23)C1` [Example 1, 6-chloro-imidazo[2,1-b]thiazole-5-sulfonic acid (2-methyl-2,3,4,9-tetrahydro-1H-β-carbolin-6-yl)-amide]: the melting point was 232 to 233 °C. In addition, in data set [1], the Ki was found to be 0.9 nM and the inhibition at 0.1 µM was 80.7%.

The compound `CN1CCc2c([nH]c3ccc(NS(=O)(=O)c4cc5ccccc5o4)cc23)C1` showed a melting point of 165 to 166 °C.

For `CN1CCc2c([nH]c3c(NS(=O)(=O)c4ccc5c(Cl)cccc5c4)cccc23)C1`, the melting point is 256 to 257 °C.

The compound `CN1CCc2c([nH]c3ccc(NS(=O)(=O)c4ccc5cc(Cl)ccc5c4)cc23)C1` [Example 16, 6-Chloro-naphthalene-2-sulfonic acid (2-methyl-2,3,4,9-tetrahydro-1H-β-carbolin-6-yl)-amide] came in with a melting point of 174 to 175 °C. Besides, the inhibition at 0.1 µM in data set [1] was determined as 85%.

For `CN1CCc2c([nH]c3ccc(NS(=O)(=O)c4csc5ccccc45)cc23)C1` [Example 2, Benzo[b]thiophene-3-sulfonic acid (2-methyl-2,3,4,9-tetrahydro-1H-β-carbolin-6-yl)-amide], the melting point fell in the range of 224 to 226 °C. In data set [1], the inhibition constant Ki is 2.8 nM and the inhibition at 0.1 µM was 79.5%.

For the compound `CN1CCc2c([nH]c3c(NS(=O)(=O)c4cccc5nonc45)cccc23)C1`, the melting point lay in the range of 246 to 247 °C.

`CN1CCc2c([nH]c3ccc(NS(=O)(=O)c4ccc(N)cc4)cc23)C1` yielded a melting point of 236 to 237 °C.

For the compound `CCCN1CCc2c([nH]c3ccc(NS(=O)(=O)c4c(Cl)nc5sccn45)cc23)C1` [Example 26, 6-Chloro-imidazo[2,1-b]thiazole-5-sulfonic acid (2-propyl-2,3,4,9-tetrahydro-1H-β-carbolin-6-yl)-amide], the melting point fell in the range of 206 to 207 °C. Also, in data set [1], the Ki came out at 2 nM and the inhibition at 0.1 µM stood at 87.9%.

Consider `CN1CCc2c([nH]c3cccc(NS(=O)(=O)c4ccc5c(Cl)cccc5c4)c23)C1`, for which the melting point fell in the range of 245 to 247 °C.

The compound `CC(=O)Nc1nc(C)c(S(=O)(=O)Nc2ccc3[nH]c4c(c3c2)CCN(C)C4)s1` displayed a melting point of 199 to 200 °C.

In turn, `CC(C)N1CCc2c([nH]c3ccc(NS(=O)(=O)c4c(Cl)nc5sccn45)cc23)C1` [Example 27, 6-Chloro-imidazo[2,1-b]thiazole-5-sulfonic acid (2-isopropyl-2,3,4,9-tetrahydro-1H-β-carbolin-6-yl)-amide] showed a melting point of 234 to 235 °C. Moreover, in data set [1], the inhibition at 0.1 µM was determined as 81.8%.

Consider `CN1CCc2c([nH]c3cc(NS(=O)(=O)c4ccc5c(Cl)cccc5c4)ccc23)C1`, for which the melting point was in the range of 257 to 259 °C.

`O=S(=O)(Nc1ccc2[nH]c3c(c2c1)CCN(CC(F)(F)F)C3)c1ccc2c(Cl)cccc2c1`: the melting point is 164 to 166 °C.

As for `CN1CCc2c([nH]c3cccc(NS(=O)(=O)c4cccc5ccccc45)c23)C1`, the melting point was 217 to 218 °C.

For `O=S(=O)(Nc1ccc2[nH]c3c(c2c1)CCN(CC(F)(F)F)C3)c1csc2ccccc12`, the melting point is 173 to 175 °C.

In turn, `CN1CCc2c([nH]c3ccc(NS(=O)(=O)c4cccc5c(N(C)C)cccc45)cc23)C1` came in with a melting point of 241 to 242 °C.

As to `CN1CCc2c([nH]c3cccc(NS(=O)(=O)c4csc5ccccc45)c23)C1`, the melting point lay within 236 to 237 °C.

Turning to `CN1CCc2c([nH]c3ccc(NS(=O)(=O)c4ccc5ccccc5c4)cc23)C1` [Example 12, Naphthalene-2-sulfonic acid (2-methyl-2,3,4,9-tetrahydro-1H-β-carbolin-6-yl)-amide], the melting point fell in the range of 244 to 245 °C. Also, in data set [1], the Ki stood at 15.9 nM and the inhibition at 0.1 µM amounted to 89.7%.

Compound `CN1CCc2c([nH]c3ccc(NS(=O)(=O)c4ccc5ccccc5c4)cc23)C1c1ccccc1` (stereo not drawn) [Example 28, Naphthalene-2-sulfonic acid (2-methyl-1-phenyl-2,3,4,9-tetrahydro-1H-β-carbolin-6-yl)-amide] came in with a melting point of 255 to 260 °C.

As to `CC(=O)Nc1ccc(S(=O)(=O)Nc2ccc3[nH]c4c(c3c2)CCN(C)C4)cc1`, the melting point lay within 232 to 234 °C.

In turn, `Cc1ccc2sc(S(=O)(=O)Nc3ccc4[nH]c5c(c4c3)CCN(C)C5)cc2c1` [Example 13, 5-Methyl-benzo[b]thiophene-2-sulfonic acid (2-methyl-2,3,4,9-tetrahydro-1H-β-carbolin-6-yl)-amide] registered a melting point of 241 to 242 °C. The inhibition at 0.1 µM in data set [1] was 71.1%.

`CN1CCc2c([nH]c3c(NS(=O)(=O)c4cccc5nsnc45)cccc23)C1` registered a melting point of 238 to 240 °C.

On to `CCN1CCc2c([nH]c3ccc(NS(=O)(=O)c4ccc5ccccc5c4)cc23)C1`, for which the melting point was 174 to 176 °C.

In turn, `CN1CCc2c([nH]c3ccc(NS(=O)(=O)c4ccc5ccc(Cl)cc5c4)cc23)C1` gave a melting point of 230 to 231 °C.

The compound `CN1CCc2c([nH]c3c(NS(=O)(=O)c4cccc5ccccc45)cccc23)C1` gave a melting point of 259 to 260 °C.

Compound `CN1CCc2c([nH]c3c(NS(=O)(=O)c4c(Cl)nc5sccn45)cccc23)C1` returned a melting point of 230 to 232 °C.

`CN1CCc2c([nH]c3ccc(NS(=O)(=O)c4ccc(F)c5ccccc45)cc23)C1` had a melting point of 236 to 238 °C.

Compound `CN1CCc2c([nH]c3cc(NS(=O)(=O)c4c(Cl)nc5sccn45)ccc23)C1` [Example 35, 6-Chloro-imidazo[2,1-b]thiazole-5-sulfonic acid (2-methyl-2,3,4,9-tetrahydro-1H-β-carbolin-7-yl)-amide] yielded a melting point of 225 to 227 °C. Moreover, in data set [1], the inhibition constant (Ki) was 8 nM and the inhibition at 0.1 µM was determined as 90%.

With `O=S(=O)(Nc1ccc2[nH]c3c(c2c1)CCN(CC(F)(F)F)C3)c1c(Cl)nc2sccn12`, the melting point fell in the range of 232 to 233 °C.

`O=S(=O)(Nc1ccc2[nH]c3c(c2c1)CCNC3)c1c(Cl)nc2sccn12` [Example 47, 6-chloro-imidazo[2,1-b]thiazole-5-sulfonic acid (2,3,4,9-tetrahydro-1H-β-carbolin-6-yl)-amide]: the melting point was in the range of 242 to 244 °C.

As to `CN1CCc2c([nH]c3c(NS(=O)(=O)c4cccc5c(N(C)C)cccc45)cccc23)C1`, the melting point lay within 225 to 226 °C.

`Cc1c(S(=O)(=O)Nc2ccc3[nH]c4c(c3c2)CCN(C)C4)sc2ccc(Cl)cc12` registered a melting point of 259 to 260 °C.

As for `CN1CCc2c([nH]c3ccc(NS(=O)(=O)c4cccc5ccccc45)cc23)C1`, the melting point lay within 245 to 246 °C.

As to `CN1CCc2c([nH]c3c(NS(=O)(=O)c4cc5ccccc5o4)cccc23)C1`, the melting point lay within 229 to 231 °C.

In turn, `CN1CCc2c([nH]c3ccc(NS(=O)(=O)c4csc5ccccc45)cc23)C1c1ccccc1` (stereo not drawn) [Example 29, Benzo[b]thiophene-3-sulfonic acid (2-methyl-1-phenyl-2,3,4,9-tetrahydro-1H-β-carbolin-6-yl)-amide] displayed a melting point of 232 to 234 °C.

With `CN1CCc2c([nH]c3cccc(NS(=O)(=O)c4c(Cl)nc5sccn45)c23)C1`, the melting point is 252 to 253 °C.

The compound `CN1CCc2c([nH]c3c(NS(=O)(=O)c4cccc5c(Cl)cccc45)cccc23)C1` had a melting point of 251 to 252 °C.

Take `CN1CCc2c([nH]c3cc(NS(=O)(=O)c4csc5ccccc45)ccc23)C1`: the melting point is 255 to 257 °C.

Regarding `CN1CCc2c([nH]c3ccc(NS(=O)(=O)c4ccc5c(Cl)cccc5c4)cc23)C1` [Example 4, 5-Chloro-naphthalene-2-sulfonic acid (2-methyl-2,3,4,9-tetrahydro-1H-β-carbolin-6-yl)-amide], in data set [1], the inhibition at 0.1 µM is 70.6%.
